Experimental findings from ChEMBL document CHEMBL1151802, “Calyciphyllines N-P, alkaloids from Daphniphyllum calycinum” (J Nat Prod, 2009) are described below.

Type in all cases: functional, cell-based
The subject of one assay is P388. Put plainly: Cytotoxicity against mouse P388 cells.
The subject of another assay is KB. Put plainly: Cytotoxicity against human KB cells.
The test system of the next assay is L1210. Put plainly: Cytotoxicity against mouse L1210 cells.

By IC50 is commonly meant the midpoint of a concentration-inhibition curve. Read a low IC50 as greater potency. With `COC(=O)[C@@H]1C[C@]23C4=NC[C@@H](C)[C@]45CC[C@@]2(C)[C@H](CCC2=C3[C@@H]1CC2)[C@H]5O` [CALYCIPHYLLINE N], the 50% inhibitory concentration (IC50) with P388 is above 55 µg/mL; in the assay on KB it was above 5 µg/mL; in the assay on L1210 it was above 5 µg/mL.
On to `COC(=O)CC[C@@]12[C@@H]3NC4C([C@@H](O)C[C@@]45CCC[C@H]51)[C@]2(C)CC[C@@H]3C(C)C` [CALYCIPHYLLINE O], for which the concentration for half-maximal inhibition (IC50) with P388 was above 55 µg/mL; in the assay on KB, above 5 µg/mL; with L1210, above 5 µg/mL.
